In PubChem BioAssay (NCI):
Values joined by “and” are separate entries in the source; they are usually repeats but may differ in a detail not shown here. Identical values can stand only once.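 Step 1: Grow cells in 96-well plates. Step 2: Expose to compound for 48 hours at 5 concentrations. Step 3: Interpolate endpoints linearly; if unreached, use highest concentration. The concentration for 50% growth inhibition is given as GI50. TGI marks complete inhibition of growth.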

What was measured:
Assay in all cases: NCI-60 cell line screen, 48 h
UACC-62 melanoma = test system: UACC-62 melanoma
CAKI-1 renal = test system: CAKI-1 renal
MALME-3M melanoma = test system: MALME-3M melanoma
SNB-19 CNS = test system: SNB-19 CNS
SK-OV-3 ovarian = test system: SK-OV-3 ovarian
SF-539 CNS = test system: SF-539 CNS
SN12C renal = test system: SN12C renal
786-0 renal = test system: 786-0 renal
SK-MEL-28 melanoma = test system: SK-MEL-28 melanoma
OVCAR-8 ovarian = test system: OVCAR-8 ovarian
T-47D breast = test system: T-47D breast
UO-31 renal = test system: UO-31 renal
OVCAR-5 ovarian = test system: OVCAR-5 ovarian
HOP-62 NSCLC = test system: HOP-62 NSCLC
SNB-75 CNS = test system: SNB-75 CNS
SR leukemia = test system: SR leukemia
HS 578T breast = test system: HS 578T breast
MDA-N = test system: MDA-N
SK-MEL-5 melanoma = test system: SK-MEL-5 melanoma
A549 NSCLC = test system: A549 NSCLC
NCI-H226 lung = test system: NCI-H226 lung
CCRF-CEM leukemia = test system: CCRF-CEM leukemia
PC-3 prostate = test system: PC-3 prostate
HT29 colon = test system: HT29 colon
COLO 205 colon = test system: COLO 205 colon
HCT-15 colon = test system: HCT-15 colon
A498 renal = test system: A498 renal
U251 CNS = test system: U251 CNS
MCF7 breast = test system: MCF7 breast
MOLT-4 leukemia = test system: MOLT-4 leukemia
SK-MEL-2 melanoma = test system: SK-MEL-2 melanoma
OVCAR-4 ovarian = test system: OVCAR-4 ovarian
IGROV1 ovarian = test system: IGROV1 ovarian
UACC-257 melanoma = test system: UACC-257 melanoma
NCI-H460 lung = test system: NCI-H460 lung
RXF 393 renal = test system: RXF 393 renal
EKVX NSCLC = test system: EKVX NSCLC
SW-620 colon = test system: SW-620 colon
NCI/ADR-RES ovarian = test system: NCI/ADR-RES ovarian
K-562 leukemia = test system: K-562 leukemia
LOX IMVI melanoma = test system: LOX IMVI melanoma
TK-10 renal = test system: TK-10 renal
M14 melanoma = test system: M14 melanoma
HL-60(TB) leukemia = test system: HL-60(TB) leukemia
MDA-MB-231 breast = test system: MDA-MB-231 breast
NCI-H23 lung = test system: NCI-H23 lung
NCI-H522 lung = test system: NCI-H522 lung
HCC-2998 colon = test system: HCC-2998 colon
OVCAR-3 ovarian = test system: OVCAR-3 ovarian
DU-145 prostate = test system: DU-145 prostate
KM12 colon = test system: KM12 colon
SF-268 CNS = test system: SF-268 CNS
HCT-116 colon = test system: HCT-116 colon
MDA-MB-435 = test system: MDA-MB-435
ACHN renal = test system: ACHN renal
SF-295 CNS = test system: SF-295 CNS
BT-549 breast = test system: BT-549 breast
RPMI-8226 leukemia = test system: RPMI-8226 leukemia
HOP-92 NSCLC = test system: HOP-92 NSCLC

c1nnc(NCNc2nncs2)s1
TGI (UACC-62 melanoma): > 100 µM
TGI (CAKI-1 renal): > 100 µM
TGI (MALME-3M melanoma): > 100 µM
TGI (SNB-19 CNS): > 100 µM
TGI (SK-OV-3 ovarian): > 100 µM
TGI (SF-539 CNS): > 100 µM
TGI (SN12C renal): > 100 µM
TGI (786-0 renal): > 100 µM
TGI (SK-MEL-28 melanoma): > 100 µM
TGI (OVCAR-8 ovarian): > 100 µM
TGI (T-47D breast): > 100 µM
TGI (UO-31 renal): > 100 µM
TGI (OVCAR-5 ovarian): > 100 µM
TGI (HOP-62 NSCLC): > 100 µM
TGI (SNB-75 CNS): > 100 µM
TGI (SR leukemia): > 100 µM
TGI (HS 578T breast): > 100 µM
TGI (MDA-N): > 100 µM
TGI (SK-MEL-5 melanoma): > 100 µM
TGI (A549 NSCLC): > 100 µM
TGI (NCI-H226 lung): > 100 µM
TGI (CCRF-CEM leukemia): > 100 µM
TGI (PC-3 prostate): > 100 µM
TGI (HT29 colon): > 100 µM
TGI (COLO 205 colon): > 100 µM
TGI (HCT-15 colon): > 100 µM
TGI (A498 renal): > 100 µM
TGI (U251 CNS): > 100 µM
TGI (MCF7 breast): > 100 µM
TGI (MOLT-4 leukemia): > 100 µM
TGI (SK-MEL-2 melanoma): > 100 µM
TGI (OVCAR-4 ovarian): > 100 µM
TGI (IGROV1 ovarian): > 100 µM
TGI (UACC-257 melanoma): > 100 µM
TGI (NCI-H460 lung): 83.6 µM
TGI (RXF 393 renal): > 100 µM
TGI (EKVX NSCLC): > 100 µM
TGI (SW-620 colon): > 100 µM
TGI (NCI/ADR-RES ovarian): > 100 µM
TGI (K-562 leukemia): > 100 µM
TGI (LOX IMVI melanoma): > 100 µM
TGI (TK-10 renal): > 100 µM
TGI (M14 melanoma): > 100 µM
TGI (HL-60(TB) leukemia): > 100 µM
TGI (MDA-MB-231 breast): > 100 µM
TGI (NCI-H23 lung): > 100 µM
TGI (NCI-H522 lung): > 100 µM
TGI (HCC-2998 colon): 84.2 µM
TGI (OVCAR-3 ovarian): > 100 µM
TGI (DU-145 prostate): > 100 µM
TGI (KM12 colon): > 100 µM
TGI (SF-268 CNS): > 100 µM
TGI (HCT-116 colon): > 100 µM
TGI (MDA-MB-435): > 100 µM
TGI (ACHN renal): > 100 µM
TGI (SF-295 CNS): > 100 µM
TGI (BT-549 breast): > 100 µM
TGI (RPMI-8226 leukemia): > 100 µM
TGI (HOP-92 NSCLC): > 100 µM

CCN(CC)CCNc1n[n+]([O-])c2ccccc2[n+]1[O-]
TGI (UACC-62 melanoma): 22.2 µM and 21.2 µM
GI50 (CAKI-1 renal): 2.89 µM and 6.81 µM
TGI (MALME-3M melanoma): 20.7 µM and 20.8 µM
TGI (SNB-19 CNS): > 72.1 µM and 56 µM
TGI (SK-OV-3 ovarian): 32.4 µM
TGI (SF-539 CNS): 25.7 µM and 42.9 µM
TGI (SN12C renal): 19.1 µM and 18.9 µM
TGI (786-0 renal): 64.5 µM and 21 µM
TGI (SK-MEL-28 melanoma): > 100 µM
TGI (OVCAR-8 ovarian): 31.1 µM and 27 µM
TGI (T-47D breast): 36.4 µM and 27.5 µM
TGI (UO-31 renal): > 79.4 µM and 57.1 µM
TGI (OVCAR-5 ovarian): 38.6 µM and 35.8 µM
TGI (HOP-62 NSCLC): 20 µM
GI50 (SNB-75 CNS): 4.07 µM and 14.8 µM
TGI (SNB-75 CNS): 45.3 µM and 55.4 µM
GI50 (SR leukemia): 2.92 µM and 6.7 µM
TGI (SR leukemia): 6.87 µM and 28.7 µM
TGI (HS 578T breast): 97.5 µM
TGI (MDA-N): > 100 µM and 31.8 µM
TGI (SK-MEL-5 melanoma): 4.86 µM and 3.31 µM
GI50 (A549 NSCLC): 5.07 µM and 10.2 µM
TGI (A549 NSCLC): 22.3 µM and 29.6 µM
TGI (NCI-H226 lung): 23.7 µM and 29.9 µM
TGI (CCRF-CEM leukemia): 13.7 µM and 30.6 µM
TGI (PC-3 prostate): > 100 µM
TGI (HT29 colon): 39.2 µM and 42.7 µM
TGI (COLO 205 colon): 19.9 µM and 26 µM
TGI (HCT-15 colon): 26.1 µM and 25 µM
GI50 (A498 renal): 5.47 µM and 2.54 µM
TGI (A498 renal): 9.39 µM and 9.85 µM
TGI (U251 CNS): > 52.4 µM and 36.9 µM
GI50 (MCF7 breast): 5.43 µM and 2.55 µM
TGI (MCF7 breast): 37.6 µM and 26.2 µM
TGI (MOLT-4 leukemia): 5.12 µM and 5.07 µM
GI50 (SK-MEL-2 melanoma): 2.34 µM and 5.13 µM
TGI (SK-MEL-2 melanoma): 13.2 µM and 19.1 µM
TGI (OVCAR-4 ovarian): 11.2 µM and 73.6 µM
TGI (IGROV1 ovarian): 10.3 µM and 17 µM
GI50 (UACC-257 melanoma): 8.39 µM and 3.54 µM
TGI (UACC-257 melanoma): 18.3 µM and 20.4 µM
GI50 (NCI-H460 lung): 3.94 µM and 1.54 µM
TGI (NCI-H460 lung): 38.4 µM and 12.6 µM
TGI (RXF 393 renal): 25.4 µM and 42.7 µM
TGI (EKVX NSCLC): 44 µM
TGI (SW-620 colon): 82 µM and 55.9 µM
TGI (NCI/ADR-RES ovarian): 85.6 µM and > 100 µM
TGI (K-562 leukemia): 6.45 µM and 18.5 µM
TGI (LOX IMVI melanoma): 28.3 µM
TGI (TK-10 renal): > 68.5 µM and 41.8 µM
TGI (M14 melanoma): 21 µM and 28.7 µM
TGI (HL-60(TB) leukemia): 7.61 µM and 8.95 µM
GI50 (MDA-MB-231 breast): 6.08 µM and 2.83 µM
TGI (MDA-MB-231 breast): 27.3 µM and 20.7 µM
GI50 (NCI-H23 lung): 4.31 µM and 9.76 µM
TGI (NCI-H23 lung): 19 µM and 33.7 µM
GI50 (NCI-H522 lung): 3.85 µM and 7.95 µM
TGI (NCI-H522 lung): 17.3 µM and 22.9 µM
TGI (HCC-2998 colon): 6.12 µM and 14.5 µM
TGI (OVCAR-3 ovarian): 26.2 µM
TGI (DU-145 prostate): 48.4 µM and 47.9 µM
TGI (KM12 colon): 25.2 µM and 29 µM
TGI (SF-268 CNS): 48.4 µM and > 100 µM
TGI (HCT-116 colon): 26.6 µM and 31 µM
TGI (MDA-MB-435): 50 µM and > 100 µM
TGI (ACHN renal): 18.4 µM and 21.1 µM
TGI (SF-295 CNS): 39.5 µM and 23.9 µM
TGI (BT-549 breast): 34.2 µM and 74.1 µM
TGI (RPMI-8226 leukemia): 18.9 µM and 20.5 µM
GI50 (HOP-92 NSCLC): 2.28 µM and 7.45 µM
TGI (HOP-92 NSCLC): > 21.8 µM and 46.6 µM

Cc1cc(=O)oc2cc(O)c(CN(C)CC(=O)O)cc12
TGI (UACC-62 melanoma): > 100 µM
TGI (CAKI-1 renal): > 100 µM
TGI (MALME-3M melanoma): > 100 µM
TGI (SNB-19 CNS): > 100 µM
TGI (SF-539 CNS): > 100 µM
TGI (SN12C renal): > 100 µM
TGI (786-0 renal): > 100 µM
TGI (SK-MEL-28 melanoma): > 100 µM
TGI (OVCAR-8 ovarian): > 100 µM
TGI (T-47D breast): > 100 µM
TGI (UO-31 renal): > 100 µM
TGI (OVCAR-5 ovarian): > 100 µM
TGI (SNB-75 CNS): > 100 µM
TGI (SR leukemia): > 100 µM
TGI (HS 578T breast): > 100 µM
TGI (MDA-N): > 100 µM
TGI (SK-MEL-5 melanoma): > 100 µM
TGI (A549 NSCLC): > 100 µM
TGI (NCI-H226 lung): > 100 µM
TGI (PC-3 prostate): > 100 µM
TGI (HT29 colon): > 100 µM
TGI (COLO 205 colon): > 100 µM
TGI (HCT-15 colon): > 100 µM
TGI (A498 renal): > 100 µM
TGI (U251 CNS): > 100 µM
TGI (MCF7 breast): > 100 µM
TGI (SK-MEL-2 melanoma): > 100 µM
TGI (OVCAR-4 ovarian): > 100 µM
TGI (IGROV1 ovarian): > 100 µM
TGI (UACC-257 melanoma): > 100 µM
TGI (NCI-H460 lung): > 100 µM
TGI (RXF 393 renal): > 100 µM
TGI (EKVX NSCLC): > 100 µM
TGI (SW-620 colon): > 100 µM
TGI (NCI/ADR-RES ovarian): > 100 µM
TGI (K-562 leukemia): > 100 µM
TGI (LOX IMVI melanoma): > 100 µM
TGI (TK-10 renal): > 100 µM
TGI (M14 melanoma): > 100 µM
TGI (HL-60(TB) leukemia): > 100 µM
TGI (MDA-MB-231 breast): > 100 µM
TGI (NCI-H23 lung): > 100 µM
TGI (NCI-H522 lung): > 100 µM
TGI (HCC-2998 colon): > 100 µM
TGI (DU-145 prostate): > 100 µM
TGI (KM12 colon): > 100 µM
TGI (SF-268 CNS): > 100 µM
TGI (HCT-116 colon): > 100 µM
TGI (MDA-MB-435): > 100 µM
TGI (ACHN renal): > 100 µM
TGI (BT-549 breast): > 100 µM
TGI (RPMI-8226 leukemia): > 100 µM
TGI (HOP-92 NSCLC): > 100 µM
